Assay results from US20070219245A1, “METHOD OF USE FOR SUBSTITUTED DIPIPERIDINE CCR2 ANTAGONISTS” (priority 2006, published 2007).

Columns and labels:
[1] = system: NON (NONcNZO10/LtJ) mice; assay: Insulin sensitivity model: Day 28 blood samples and body weight; format: in vivo
Description: (§1) In an insulin sensitivity model in mice, four month old male NON (NONcNZO10/LtJ) mice in four treatment groups (treated: 25 mg/kg, 50 mg/kg and 100 mg/kg and non-treated vehicle control) were fed LabDiet® 5K20 for 28 days. The treated groups were dosed (0.1 mL, ip, bid) with a test compound from Day 1 to Day 28. The non-treated group was dosed (0.1 mL, ip, q.d.) with vehicle from Day 1 to Day 28. Body weight and blood glucose were monitored once per week and an insulin tolerance test was performed by i.p. injection of […] insulin, then fed blood glucose levels were measured at 0, 15, 30, 60, 90, and 120 min after insulin administration. The insulin tolerance test blood glucose levels at the time points the sample were taken after insulin administration are shown in Table 5. After sacrifice on Day 28, blood samples were collected to measure HbA1c, plasma levels of glucose, plasma insulin, FFA (free fatty acids) and MCP-1. Blood glucose levels were measured using a Glucometer. MCP-1 and insulin were measured by ELISA. Plasma glucose and FFA were measured using Weko kits. The statistical analysis for p value was performed using the program Prism (Graphpad, Monrovia, Calif.) with the Student t-test (unpaired). All data are presented as the mean ± standard error of the mean (SEM).

[2] = system: NON (NONcNZO10/LtJ) mice; assay: Insulin sensitivity model: insulin tolerance test; format: in vivo; settings: for Blood Glucose: mean ± SEM
Description: as §1, with “5.” for “5. After sacrifice on Day 28, blood samples were collected to measure HbA1c, plasma levels of glucose, plasma insulin, FFA (free fatty acids) and MCP-1.”

[3] = Day 28, 100 mg/kg ip bid, mean ± SEM

SMILES: O=C(O)[C@H](C1CCN(C(=O)/C=C/c2cc(F)c(F)c(F)c2)CC1)N1CCC(c2c[nH]c3ccccc23)CC1 [(S)-{[4-(1H-indol-3-yl)-piperidin-1-yl]}-{1-[(2E)-3-(3,4,5-trifluoro-phenyl)-acryloyl]-piperidin-4-yl}-acetic acid]
- Plasma Glucose [1, 3]: 190 ± 15 mg/dL
- Plasma Insulin [1, 3]: 7.9 ± 1.1 ng/mL
- Plasma MCP-1 [1, 3]: 555.6 ± 104.5 pg/mL
- HbA1c levels ([1]; NON mice): significantly reduced
- body weight between treated and non-treated groups ([1]; NON mice): without a significant difference
- Blood Glucose ([2]; Day 7, 25 mg/kg ip bid, 0 min after insulin): 333 ± 44 mg/dL
- Blood Glucose ([2]; Day 7, 25 mg/kg ip bid, 15 min after insulin): 213 ± 40 mg/dL
- Blood Glucose ([2]; Day 7, 25 mg/kg ip bid, 30 min after insulin): 157 ± 27 mg/dL
- Blood Glucose ([2]; Day 7, 25 mg/kg ip bid, 60 min after insulin): 146 ± 21 mg/dL
- Blood Glucose ([2]; Day 7, 25 mg/kg ip bid, 90 min after insulin): 146 ± 18 mg/dL
- Blood Glucose ([2]; Day 7, 25 mg/kg ip bid, 120 min after insulin): 164 ± 23 mg/dL
- Blood Glucose ([2]; Day 7, 50 mg/kg ip bid, 0 min after insulin): 325 ± 54 mg/dL
- Blood Glucose ([2]; Day 7, 50 mg/kg ip bid, 15 min after insulin): 213 ± 51 mg/dL
- Blood Glucose ([2]; Day 7, 50 mg/kg ip bid, 30 min after insulin): 136 ± 20 mg/dL
- Blood Glucose ([2]; Day 7, 50 mg/kg ip bid, 60 min after insulin): 115 ± 13 mg/dL
- Blood Glucose ([2]; Day 7, 50 mg/kg ip bid, 90 min after insulin): 115 ± 8 mg/dL
- Blood Glucose ([2]; Day 7, 50 mg/kg ip bid, 120 min after insulin): 142 ± 8 mg/dL
- Blood Glucose ([2]; Day 7, 100 mg/kg ip bid, 0 min after insulin): 230 ± 22 mg/dL
- Blood Glucose ([2]; Day 7, 100 mg/kg ip bid, 15 min after insulin): 141 ± 16 mg/dL
- Blood Glucose ([2]; Day 7, 100 mg/kg ip bid, 30 min after insulin): 105 ± 9 mg/dL
- Blood Glucose ([2]; Day 7, 100 mg/kg ip bid, 60 min after insulin): 82 ± 8 mg/dL
- Blood Glucose ([2]; Day 7, 100 mg/kg ip bid, 90 min after insulin): 83 ± 7 mg/dL
- Blood Glucose ([2]; Day 7, 100 mg/kg ip bid, 120 min after insulin): 98 ± 8 mg/dL
- Blood Glucose ([2]; Day 21, 25 mg/kg ip bid, 0 min after insulin): 465 ± 34 mg/dL
- Blood Glucose ([2]; Day 21, 25 mg/kg ip bid, 15 min after insulin): 367 ± 51 mg/dL
- Blood Glucose ([2]; Day 21, 25 mg/kg ip bid, 30 min after insulin): 247 ± 53 mg/dL
- Blood Glucose ([2]; Day 21, 25 mg/kg ip bid, 60 min after insulin): 209 ± 56 mg/dL
- Blood Glucose ([2]; Day 21, 25 mg/kg ip bid, 90 min after insulin): 198 ± 51 mg/dL
- Blood Glucose ([2]; Day 21, 25 mg/kg ip bid, 120 min after insulin): 237 ± 43 mg/dL
- Blood Glucose ([2]; Day 21, 50 mg/kg ip bid, 0 min after insulin): 434 ± 71 mg/dL
- Blood Glucose ([2]; Day 21, 50 mg/kg ip bid, 15 min after insulin): 303 ± 56 mg/dL
- Blood Glucose ([2]; Day 21, 50 mg/kg ip bid, 30 min after insulin): 186 ± 32 mg/dL
- Blood Glucose ([2]; Day 21, 50 mg/kg ip bid, 60 min after insulin): 162 ± 37 mg/dL
- Blood Glucose ([2]; Day 21, 50 mg/kg ip bid, 90 min after insulin): 168 ± 47 mg/dL
- Blood Glucose ([2]; Day 21, 50 mg/kg ip bid, 120 min after insulin): 214 ± 49 mg/dL
- Blood Glucose ([2]; Day 21, 100 mg/kg ip bid, 0 min after insulin): 332 ± 38 mg/dL
- Blood Glucose ([2]; Day 21, 100 mg/kg ip bid, 15 min after insulin): 247 ± 28 mg/dL
- Blood Glucose ([2]; Day 21, 100 mg/kg ip bid, 30 min after insulin): 152 ± 15 mg/dL
- Blood Glucose ([2]; Day 21, 100 mg/kg ip bid, 60 min after insulin): 144 ± 21 mg/dL
- Blood Glucose ([2]; Day 21, 100 mg/kg ip bid, 90 min after insulin): 158 ± 28 mg/dL
- Blood Glucose ([2]; Day 21, 100 mg/kg ip bid, 120 min after insulin): 228 ± 43 mg/dL
- blood glucose control ([2]; NON mice): improved
- insulin sensitivity ([2]; NON mice): increased
